Series [1] in a line: Membrane permeability test using Caco-2 cells with preincubation. The conditions noted are these: Caco-2; preincubation 20 to 24 hours; Apical FaSSIF/HBSS pH 6.0, Basal HBSS 4% BSA pH 7.4; 180 minutes; read-out: Caco2 Papp. In kind it is in vitro ADME. (Passage across Caco-2 layers is used to estimate intestinal permeability.)
Another series relates to Caco-2 cells. Described as above. In kind it is in vitro ADME. The conditions noted are these: Caco-2 cells, preincubation 20 to 24 hours; apical FaSSIF/HBSS 1% DMSO pH 6.0, basal HBSS 4% BSA pH 7.4; basal sample at 180 minutes.
Series [2] in a line: Metabolic stability test: liver microsomal stability assay. The conditions noted are these: mouse liver microsomes 0.5 mg protein/mL, compound 1 µM; for microsomal CLint at 1 µM: male, pH 7.4, presence of NADPH, read-out: Mouse Hepatic Microsome CLh,int NADPH(+); for Mouse Hepatic Microsome CLh,int NADPH(-): absence of NADPH. In kind it is in vitro ADME, mouse. (Microsomes from liver hold many membrane-bound enzymes, among them those of drug oxidation.)

Experimental findings from patent EP4768499A1, “MACROCYCLIC PEPTIDE COMPOUND HAVING CELL MEMBRANE PERMEABILITY AND METABOLIC STABILITY, AND LIBRARY CONTAINING SAME” (Chugai Seiyaku Kabushiki Kaisha, priority 2023, dated 2025) are described below.

Starred links: 1 amine or outer side, 2 acyl side, 3 side chain; linkers in the order of their positions; H or OH if unused. Positions of bridges follow the written chain, without caps; N, C: chain ends. Non-standard residues stand in square brackets, D forms with d. Residues, ends and D or L forms follow the SMILES beside them. *: point of attachment. NMeF = CN[C@@H](Cc1ccccc1)C(=O)O; NMeGABA = CN(CCCC(=O)[*:2])[*:1]; NMeI = CC[C@H](C)[C@H](NC)C(=O)O; NMeT = CN[C@H](C(=O)O)[C@@H](C)O; hPhe = N[C@@H](CCc1ccccc1)C(=O)O; NMeβAla = CN(CCC(=O)[*:2])[*:1]; NMeL = CN[C@@H](CC(C)C)C(=O)O; dNMeV = CN[C@@H](C(=O)O)C(C)C; NMeV = CN[C@H](C(=O)O)C(C)C; NMeAbu = CC[C@H](NC)C(=O)O; NMeA = CN[C@@H](C)C(=O)O; Piperidide = C1CCN(*)CC1; Abu = CC[C@H](N)C(=O)O; NBuGly = CCCCNCC(=O)O; βAla = NCCC(=O)O; Sar = CNCC(=O)O; tBu = CC(C)(C)*

As to `CC[C@@H]1NC(=O)[C@H](CC(C)C)N(C)C(=O)[C@H](Cc2ccccc2)N(C)C(=O)[C@H](CC(C)C)N(C)C(=O)[C@H](C)NC(=O)C[C@@H](C(=O)N2CCCCC2)NC(=O)[C@H](C(C)C)N(C)C(=O)[C@@H]2CCCN2C(=O)CCN(C)C(=O)[C@H](CC(C)C)NC(=O)[C@H]([C@@H](C)CC)N(C)C(=O)[C@H]([C@@H](C)O)NC(=O)[C@H](Cc2ccccc2)N(C)C1=O` [pd112] (A[NMeL][NMeF][NMeL][Abu][NMeF]T[NMeI]L[NMeβAla]P[NMeV]D-Piperidide; lactam N-13), in series [1], the Papp A→B was found to be 0.35 ×10⁻⁶ cm/s. Further, in the series on Caco-2 cells, the “Caco2 Papp (10^-6 cm/sec)” value was 0.35 10^-6 cm/sec. Further, in series [2], the microsomal CLint at 1 µM amounted to 30.5 µL/min/mg and the “Mouse Hepatic Microsome CLh,int NADPH(-)” value is given as 21.2 µL/min/mg Protein.
For the compound `CC[C@H](C)[C@H]1C(=O)N[C@@H]([C@@H](C)O)C(=O)N(C)CC(=O)N(C)[C@@H](CC(C)C)C(=O)N[C@@H](CC(C)C)C(=O)N[C@H](C(=O)N2CCCCC2)CC(=O)N(C)[C@@H](C)C(=O)N[C@@H](CC(C)C)C(=O)N(C)[C@@H](CC(C)C)C(=O)N(C)CCC(=O)N(C)[C@@H](Cc2ccccc2)C(=O)NCCC(=O)N(C)[C@@H](Cc2ccccc2)C(=O)N1C` [pd113] ([NMeA]L[NMeL][NMeβAla][NMeF][βAla][NMeF][NMeI]T[Sar][NMeL]LD-Piperidide; lactam N-13), the Papp A→B in series [1] came out at 0.2 ×10⁻⁶ cm/s. In addition, in the series with Caco-2 cells, the “Caco2 Papp (10^-6 cm/sec)” value is 0.20 10^-6 cm/sec. Also, in series [2], the microsomal CLint at 1 µM is 24.4 µL/min/mg and the “Mouse Hepatic Microsome CLh,int NADPH(-)” value is 16.4 µL/min/mg Protein.
Take `CC[C@H](C)[C@@H]1NC(=O)[C@H](Cc2ccccc2)N(C)C(=O)CN(C)C(=O)C[C@@H](C(=O)N2CCCCC2)NC(=O)[C@H]([C@@H](C)CC)N(C)C(=O)[C@H](COC(C)(C)C)NC(=O)[C@@H]2CCCN2C(=O)[C@H](CCc2ccccc2)NC(=O)[C@H](CC)N(C)C(=O)[C@H](CC(C)C)NC(=O)[C@H](CC(C)C)N(C)C(=O)[C@H]([C@@H](C)O)N(C)C(=O)[C@H](CC(C)C)N(C)C1=O` [pd114] ([Sar][NMeF]I[NMeL][NMeT][NMeL]L[NMeAbu][hPhe]PS(tBu)[NMeI]D-Piperidide; lactam N-13): the Papp A→B in series [1] was 0.16 ×10⁻⁶ cm/s. Further, the “Caco2 Papp (10^-6 cm/sec)” value with Caco-2 cells is on record as 0.16 10^-6 cm/sec. Further, in series [2], the microsomal CLint at 1 µM stood at 35.6 µL/min/mg and the “Mouse Hepatic Microsome CLh,int NADPH(-)” value stood at 29.2 µL/min/mg Protein.
For `CC[C@H](C)[C@@H]1NC(=O)[C@H](CC(C)C)N(C)C(=O)CN(C)C(=O)C[C@@H](C(=O)N2CCCCC2)NC(=O)[C@H](C)N(C)C(=O)CNC(=O)[C@H](C(C)C)N(C)C(=O)[C@H](C)N(C)C(=O)[C@H](Cc2ccccc2)N(C)C(=O)[C@H](CC(C)C)NC(=O)[C@H](Cc2ccccc2)N(C)C(=O)[C@H]([C@@H](C)O)NC(=O)[C@H](CC(C)C)N(C)C1=O` [pd115] ([Sar][NMeL]I[NMeL]T[NMeF]L[NMeF][NMeA][NMeV]G[NMeA]D-Piperidide; lactam N-13) the same measures were 0.09 ×10⁻⁶ cm/s, 0.09 10^-6 cm/sec, 24.9 µL/min/mg and 12.3 µL/min/mg Protein.
As to `CC(C)C[C@@H]1NC(=O)[C@H]([C@@H](C)O)N(C)C(=O)[C@@H](C(C)C)NC(=O)C[C@@H](C(=O)N2CCCCC2)NC(=O)[C@H](C(C)C)N(C)C(=O)[C@H](C)N(C)C(=O)[C@H](Cc2ccccc2)N(C)C(=O)[C@@H]2CCCN2C(=O)[C@H](CC(C)C)N(C)C(=O)CN(C)C(=O)[C@H](CCc2ccccc2)NC(=O)[C@H](CC(C)C)N(C)C(=O)[C@H](C(C)C)N(C)C1=O` [pd116] ([dV][NMeT]L[NMeV][NMeL][hPhe][Sar][NMeL]P[NMeF][NMeA][NMeV]D-Piperidide; lactam N-13), in series [1], the Papp A→B worked out at 0.19 ×10⁻⁶ cm/s. Also, the “Caco2 Papp (10^-6 cm/sec)” value with Caco-2 cells is reported as 0.19 10^-6 cm/sec. Moreover, in series [2], the microsomal CLint at 1 µM amounted to 19.2 µL/min/mg and the “Mouse Hepatic Microsome CLh,int NADPH(-)” value was 14.9 µL/min/mg Protein.
Regarding `CC[C@H]1C(=O)N(C)[C@@H](CC(C)C)C(=O)N[C@@H]([C@@H](C)O)C(=O)N(C)[C@@H](C)C(=O)N(C)[C@@H](CC(C)C)C(=O)N[C@H](C(=O)N2CCCCC2)CC(=O)N(C)CCCC(=O)N[C@@H](CC(C)C)C(=O)N(C)[C@@H](CC(C)C)C(=O)N(C)[C@@H](C)C(=O)N(C)[C@@H](Cc2ccccc2)C(=O)N[C@@H](C)C(=O)N(C)[C@@H](Cc2ccccc2)C(=O)N1C` [pd117] ([NMeGABA]L[NMeL][NMeA][NMeF]A[NMeF][NMeAbu][NMeL]T[NMeA][NMeL]D-Piperidide; lactam N-13), the Papp A→B in series [1] came out at 0.17 ×10⁻⁶ cm/s. Further, the “Caco2 Papp (10^-6 cm/sec)” value in the series with Caco-2 cells is given as 0.17 10^-6 cm/sec. In addition, in series [2], the microsomal CLint at 1 µM was found to be 25.9 µL/min/mg and the “Mouse Hepatic Microsome CLh,int NADPH(-)” value is 14.4 µL/min/mg Protein.
The corresponding values for `CC[C@H](C)[C@H]1C(=O)N[C@@H](Cc2ccccc2)C(=O)N2CCC[C@H]2C(=O)N(C)[C@@H](CC(C)C)C(=O)N[C@@H](COC(C)(C)C)C(=O)N(C)[C@@H](Cc2ccccc2)C(=O)N[C@@H]([C@@H](C)O)C(=O)N(C)[C@@H](CC)C(=O)N2CCC[C@H]2C(=O)N(C)[C@@H](CC(C)C)C(=O)N[C@H](C(=O)N2CCCCC2)CC(=O)N(C)CCCC(=O)N(C)[C@@H](CC(C)C)C(=O)N1C` [pd118] ([NMeGABA][NMeL][NMeI]FP[NMeL]S(tBu)[NMeF]T[NMeAbu]P[NMeL]D-Piperidide; lactam N-13) are 0.46 ×10⁻⁶ cm/s, 0.46 10^-6 cm/sec, 31.2 µL/min/mg and 19.8 µL/min/mg Protein.
With `CC[C@H](C)[C@H]1C(=O)N[C@@H](CC(C)C)C(=O)N(C)[C@@H](CC(C)C)C(=O)N2CCC[C@H]2C(=O)N(C)[C@@H](C(C)C)C(=O)N[C@H](C(=O)N2CCCCC2)CC(=O)N(C)[C@@H](C)C(=O)N(C)[C@@H](CC(C)C)C(=O)N[C@@H](COC(C)(C)C)C(=O)N(C)[C@@H](Cc2ccccc2)C(=O)N(C)[C@@H](CC)C(=O)N(C)[C@@H](Cc2ccccc2)C(=O)N[C@@H]([C@@H](C)O)C(=O)N1C` [pd119] ([NMeA][NMeL]S(tBu)[NMeF][NMeAbu][NMeF]T[NMeI]L[NMeL]P[NMeV]D-Piperidide; lactam N-13), the Papp A→B in series [1] is 0.5 ×10⁻⁶ cm/s. Further, in the series with Caco-2 cells, the “Caco2 Papp (10^-6 cm/sec)” value was 0.50 10^-6 cm/sec. For the same compound, in series [2], the microsomal CLint at 1 µM was determined as 41.2 µL/min/mg and the “Mouse Hepatic Microsome CLh,int NADPH(-)” value stood at 34.2 µL/min/mg Protein.
Regarding `CC[C@H](C)[C@H]1C(=O)N[C@@H]([C@@H](C)O)C(=O)N(C)CC(=O)N(C)[C@@H](CC(C)C)C(=O)N(C)[C@@H](Cc2ccccc2)C(=O)N[C@H](C(=O)N2CCCCC2)CC(=O)N(C)[C@@H](C)C(=O)N[C@@H](CC(C)C)C(=O)N(C)[C@@H](Cc2ccccc2)C(=O)N(C)CCC(=O)N(C)[C@@H](CC(C)C)C(=O)N(C)CCC(=O)N[C@@H](CC(C)C)C(=O)N1C` [pd120] ([NMeA]L[NMeF][NMeβAla][NMeL][NMeβAla]L[NMeI]T[Sar][NMeL][NMeF]D-Piperidide; lactam N-13), the Papp A→B in series [1] was 0.69 ×10⁻⁶ cm/s. In addition, the “Caco2 Papp (10^-6 cm/sec)” value with Caco-2 cells is reported as 0.69 10^-6 cm/sec. Besides, in series [2], the microsomal CLint at 1 µM was found to be 25.8 µL/min/mg and the “Mouse Hepatic Microsome CLh,int NADPH(-)” value stood at 18.4 µL/min/mg Protein.
For `CC[C@H](C)[C@@H]1NC(=O)[C@H](C)N(C)C(=O)C[C@@H](C(=O)N2CCCCC2)NC(=O)[C@H](CC)N(C)C(=O)[C@H](COC(C)(C)C)NC(=O)[C@H](CC(C)C)N(C)C(=O)[C@H](C)N(C)C(=O)[C@H](CC(C)C)N(C)C(=O)[C@H](Cc2ccccc2)N(C)C(=O)CN(C)C(=O)[C@H]([C@@H](C)O)NC(=O)[C@H](CC(C)C)N(C)C(=O)[C@H](Cc2ccccc2)N(C)C1=O` [pd121] ([NMeA]I[NMeF][NMeL]T[Sar][NMeF][NMeL][NMeA][NMeL]S(tBu)[NMeAbu]D-Piperidide; lactam N-13) the same measures were 1.02 ×10⁻⁶ cm/s, 1.02 10^-6 cm/sec, 21.9 µL/min/mg and 18.2 µL/min/mg Protein.
Turning to `CC[C@@H]1NC(=O)[C@@H]2CCCN2C(=O)[C@H](C(C)C)NC(=O)[C@H](Cc2ccccc2)N(C)C(=O)[C@H](C)N(C)C(=O)[C@H](CC(C)C)N(C)C(=O)[C@H]([C@@H](C)O)N(C)C(=O)[C@H](CC(C)C)N(C)C(=O)[C@H](CC)NC(=O)[C@H](Cc2ccccc2)N(C)C(=O)CN(C)C(=O)C[C@@H](C(=O)N2CCCCC2)NC(=O)[C@H](C(C)C)N(C)C1=O` [pd122] ([Sar][NMeF][Abu][NMeL][NMeT][NMeL][NMeA][NMeF]VP[Abu][NMeV]D-Piperidide; lactam N-13), the Papp A→B in series [1] came out at 0.06 ×10⁻⁶ cm/s. Moreover, in the series with Caco-2 cells, the “Caco2 Papp (10^-6 cm/sec)” value is given as 0.06 10^-6 cm/sec. In series [2], the microsomal CLint at 1 µM is 11.1 µL/min/mg and the “Mouse Hepatic Microsome CLh,int NADPH(-)” value is given as 9.6 µL/min/mg Protein.
For the compound `CCCCN1CC(=O)N(C)[C@@H](CC(C)C)C(=O)N[C@@H](COC(C)(C)C)C(=O)N(C)[C@@H](Cc2ccccc2)C(=O)N(C)[C@@H](C)C(=O)N(C)[C@@H](C(C)C)C(=O)N[C@H](C(=O)N2CCCCC2)CC(=O)N(C)[C@H](C(C)C)C(=O)N(C)[C@@H](Cc2ccccc2)C(=O)N2CCC[C@H]2C(=O)N(C)[C@@H](C(C)C)C(=O)N(C)[C@@H](CC(C)C)C(=O)N[C@@H]([C@@H](C)O)C1=O` [pd123] ([dNMeV][NMeF]P[NMeV][NMeL]T[NBuGly][NMeL]S(tBu)[NMeF][NMeA][NMeV]D-Piperidide; lactam N-13), in series [1], the Papp A→B came out at 0.56 ×10⁻⁶ cm/s. In the series on Caco-2 cells, the “Caco2 Papp (10^-6 cm/sec)” value is 0.56 10^-6 cm/sec. In series [2], the microsomal CLint at 1 µM worked out at 31 µL/min/mg and the “Mouse Hepatic Microsome CLh,int NADPH(-)” value is on record as 36.0 µL/min/mg Protein.
